In ChEMBL document CHEMBL1201862, “PubChem BioAssay data set” (2004):
Active and inactive are the calls of the source.

Assays:
[1] = biological target: T1, Sphingosine 1-phosphate receptor 4 (Homo sapiens, UniProt O95977); test: Late stage fluorescence dose response cell-based screening assay for antagonists of the Sphingosine 1-Phosphate Receptor 4 (S1P4). [Related pubchem assays: 1524 (Confirmation screen (S1P4 antagonists).), 1510 (Primary screen (S1P4 antagonists).), 1853 (Summary AID (S1P4 antagonists).), 1692 (Dose response screen (S1P4 antagonists).)]; type: functional
T1 sequence (O95977 whole entry): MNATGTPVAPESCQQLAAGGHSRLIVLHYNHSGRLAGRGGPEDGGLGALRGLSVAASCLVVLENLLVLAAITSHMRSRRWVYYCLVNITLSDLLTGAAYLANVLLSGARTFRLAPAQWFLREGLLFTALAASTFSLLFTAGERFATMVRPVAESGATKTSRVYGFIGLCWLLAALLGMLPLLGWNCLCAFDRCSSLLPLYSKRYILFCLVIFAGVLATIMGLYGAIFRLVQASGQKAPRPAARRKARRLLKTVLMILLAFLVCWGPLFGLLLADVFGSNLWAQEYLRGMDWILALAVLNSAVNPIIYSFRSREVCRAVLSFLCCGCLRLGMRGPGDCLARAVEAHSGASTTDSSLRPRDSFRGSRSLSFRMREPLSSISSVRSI

[2] = biological target: T2, High affinity choline transporter 1 (Homo sapiens, UniProt Q9GZV3); test: human choline transporter blockers, potency – cell-based, 5-point CRC, membrane potential dye, dose response (AID 504840); type: functional
T2 sequence (Q9GZV3 whole entry): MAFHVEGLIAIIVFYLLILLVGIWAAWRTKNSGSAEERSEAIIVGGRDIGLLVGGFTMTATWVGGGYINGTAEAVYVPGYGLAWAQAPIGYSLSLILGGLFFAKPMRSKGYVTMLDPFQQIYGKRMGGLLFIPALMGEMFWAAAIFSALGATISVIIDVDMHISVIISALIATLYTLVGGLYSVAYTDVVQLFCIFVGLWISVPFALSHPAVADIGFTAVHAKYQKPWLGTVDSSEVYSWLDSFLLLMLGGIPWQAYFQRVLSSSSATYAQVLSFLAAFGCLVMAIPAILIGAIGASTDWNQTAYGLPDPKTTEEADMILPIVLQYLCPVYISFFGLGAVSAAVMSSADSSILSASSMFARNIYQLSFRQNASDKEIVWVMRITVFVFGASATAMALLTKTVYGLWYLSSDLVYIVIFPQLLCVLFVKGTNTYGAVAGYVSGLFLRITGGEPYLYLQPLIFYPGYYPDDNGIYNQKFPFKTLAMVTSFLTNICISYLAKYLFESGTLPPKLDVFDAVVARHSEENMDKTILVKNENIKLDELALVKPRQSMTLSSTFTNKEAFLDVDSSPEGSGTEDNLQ

14-3-3 protein gamma = 14-3-3 protein gamma (Homo sapiens, UniProt P61981); test: modulators of 14-3-3 gamma client binding – dose response (AID 711); type: functional
[3] = luciferase reporter signal suppression in cells – H4 neuroglioma cells, luminescence, dose response (AID 1990); type: functional, cell-based
Aurora kinase B = Aurora kinase B (Homo sapiens, UniProt Q96GD4); type: functional
[4] = biological target: Leucine-rich repeat serine/threonine-protein kinase 2 (Homo sapiens, UniProt Q5S007); type: functional;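 further: value from a broad kinome-wide panel profiling study in which LRRK2 was one of the kinases tested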
[5] = biological target: Protein-tyrosine kinase 6 (Homo sapiens, UniProt Q13882); type: functional
[6] = biological target: Interleukin-1 receptor-associated kinase 1 (Homo sapiens, UniProt P51617); type: functional;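 further: IRAK1 tested as one member of a kinome panel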
[7] = biological target: Non-receptor tyrosine-protein kinase TYK2 (Homo sapiens, UniProt P29597); type: functional
[8] = biological target: Inhibitor of nuclear factor kappa-B kinase subunit epsilon (Homo sapiens, UniProt Q14164); test: Navigating the Kinome. Panel member name: IKBKE; type: functional
[9] = biological target: Ribosomal protein S6 kinase alpha-3 (Homo sapiens, UniProt P51812); type: functional;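 further: measured within a kinome-wide profiling panel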
Activin receptor type-1 = Activin receptor type-1 (Homo sapiens, UniProt Q04771); test: Navigating the Kinome. Panel member name: ACVR1; type: functional
[10] = biological target: Serine/threonine-protein kinase Chk2 (Homo sapiens, UniProt O96017); type: functional;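 further: CHEK2 entry within a kinome-wide screening panel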
[11] = biological target: T3, Mannose-6-phosphate isomerase (Homo sapiens, UniProt P34949); test: MPI inhibition at elevated mannose 6-phosphate – biochemical, fluorescence intensity, high mannose 6-phosphate, primary screen (AID 1220)
T3 sequence (P34949 whole entry): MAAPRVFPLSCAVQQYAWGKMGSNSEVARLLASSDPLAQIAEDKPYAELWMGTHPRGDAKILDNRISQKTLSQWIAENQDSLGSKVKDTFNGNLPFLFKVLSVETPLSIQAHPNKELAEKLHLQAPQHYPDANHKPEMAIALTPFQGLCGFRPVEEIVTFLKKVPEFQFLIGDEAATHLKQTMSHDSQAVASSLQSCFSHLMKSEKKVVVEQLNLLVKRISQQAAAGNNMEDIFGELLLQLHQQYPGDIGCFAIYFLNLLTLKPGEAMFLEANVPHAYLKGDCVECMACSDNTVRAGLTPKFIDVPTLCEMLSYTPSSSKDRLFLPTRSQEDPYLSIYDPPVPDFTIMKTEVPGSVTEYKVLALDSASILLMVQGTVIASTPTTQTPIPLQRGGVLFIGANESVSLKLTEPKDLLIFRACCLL

Beta-galactosidase [12] = biological target: T4, Beta-galactosidase (Escherichia coli, UniProt Q8VNN2); test: detection-enzyme interference by beta-gal modulators – biochemical, E. coli enzyme, set 3, artefact control for CCR6 antagonist project, dose response (AID 504712); type: functional
Nonstructural protein 1 = Nonstructural protein 1 (Influenza A virus, UniProt Q194T2); type: functional, Influenza A virus (A/California/07/2009(H1N1))
Beta-galactosidase [13] = biological target: T4, Beta-galactosidase; type: functional
LIM domain kinase 1 = LIM domain kinase 1 (Homo sapiens, UniProt P53667); test: Navigating the Kinome. Panel member name: LIMK1; type: functional
[14] = biological target: Calcium/calmodulin-dependent protein kinase type II subunit alpha (Homo sapiens, UniProt Q9UQM7); test: Navigating the Kinome. Panel member name: CAMK2A; type: functional
[15] = biological target: Mitogen-activated protein kinase kinase kinase kinase 5 (Homo sapiens, UniProt Q9Y4K4); type: functional;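 further: measured as one member of a kinome-spanning kinase panel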

T4 sequence (Q8VNN2 whole entry): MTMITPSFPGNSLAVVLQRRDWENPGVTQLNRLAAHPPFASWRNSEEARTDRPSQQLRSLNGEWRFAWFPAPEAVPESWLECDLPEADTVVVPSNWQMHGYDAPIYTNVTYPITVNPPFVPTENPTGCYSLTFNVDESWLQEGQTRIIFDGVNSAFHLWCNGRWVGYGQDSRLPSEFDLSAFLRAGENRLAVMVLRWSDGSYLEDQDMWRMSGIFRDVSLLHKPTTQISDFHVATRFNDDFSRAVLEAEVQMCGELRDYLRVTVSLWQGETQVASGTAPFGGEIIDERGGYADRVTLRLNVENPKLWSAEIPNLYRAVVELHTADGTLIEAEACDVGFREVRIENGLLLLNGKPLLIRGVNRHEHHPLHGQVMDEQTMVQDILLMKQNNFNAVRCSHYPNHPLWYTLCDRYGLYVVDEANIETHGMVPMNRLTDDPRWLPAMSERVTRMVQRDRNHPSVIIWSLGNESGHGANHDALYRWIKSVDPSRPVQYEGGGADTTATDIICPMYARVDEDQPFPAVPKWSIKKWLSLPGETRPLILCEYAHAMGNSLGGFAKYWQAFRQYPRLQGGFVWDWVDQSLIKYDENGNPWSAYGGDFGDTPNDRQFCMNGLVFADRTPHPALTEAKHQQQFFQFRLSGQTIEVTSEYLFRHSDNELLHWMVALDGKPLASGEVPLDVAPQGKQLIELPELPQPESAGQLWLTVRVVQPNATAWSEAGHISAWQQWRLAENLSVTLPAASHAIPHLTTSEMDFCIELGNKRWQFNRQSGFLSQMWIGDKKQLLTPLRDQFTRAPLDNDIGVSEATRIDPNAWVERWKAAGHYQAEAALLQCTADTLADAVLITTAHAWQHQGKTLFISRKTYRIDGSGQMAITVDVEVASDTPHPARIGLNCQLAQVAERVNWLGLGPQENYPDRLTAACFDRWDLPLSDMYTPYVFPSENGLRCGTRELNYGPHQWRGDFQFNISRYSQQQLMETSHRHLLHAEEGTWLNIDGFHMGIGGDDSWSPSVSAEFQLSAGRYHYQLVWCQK
Sequence of Aurora kinase B (Q96GD4 whole entry): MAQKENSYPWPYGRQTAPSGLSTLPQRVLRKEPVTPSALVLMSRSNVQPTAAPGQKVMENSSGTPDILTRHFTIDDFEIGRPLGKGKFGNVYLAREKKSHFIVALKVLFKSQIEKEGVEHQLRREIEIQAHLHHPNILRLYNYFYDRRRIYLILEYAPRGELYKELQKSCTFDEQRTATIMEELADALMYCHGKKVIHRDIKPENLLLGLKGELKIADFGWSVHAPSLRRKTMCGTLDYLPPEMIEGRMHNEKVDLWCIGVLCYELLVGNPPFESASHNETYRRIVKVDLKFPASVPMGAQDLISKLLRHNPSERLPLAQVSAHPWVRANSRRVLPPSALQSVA
Sequence of LIM domain kinase 1 (P53667 whole entry, the tested form may be a part): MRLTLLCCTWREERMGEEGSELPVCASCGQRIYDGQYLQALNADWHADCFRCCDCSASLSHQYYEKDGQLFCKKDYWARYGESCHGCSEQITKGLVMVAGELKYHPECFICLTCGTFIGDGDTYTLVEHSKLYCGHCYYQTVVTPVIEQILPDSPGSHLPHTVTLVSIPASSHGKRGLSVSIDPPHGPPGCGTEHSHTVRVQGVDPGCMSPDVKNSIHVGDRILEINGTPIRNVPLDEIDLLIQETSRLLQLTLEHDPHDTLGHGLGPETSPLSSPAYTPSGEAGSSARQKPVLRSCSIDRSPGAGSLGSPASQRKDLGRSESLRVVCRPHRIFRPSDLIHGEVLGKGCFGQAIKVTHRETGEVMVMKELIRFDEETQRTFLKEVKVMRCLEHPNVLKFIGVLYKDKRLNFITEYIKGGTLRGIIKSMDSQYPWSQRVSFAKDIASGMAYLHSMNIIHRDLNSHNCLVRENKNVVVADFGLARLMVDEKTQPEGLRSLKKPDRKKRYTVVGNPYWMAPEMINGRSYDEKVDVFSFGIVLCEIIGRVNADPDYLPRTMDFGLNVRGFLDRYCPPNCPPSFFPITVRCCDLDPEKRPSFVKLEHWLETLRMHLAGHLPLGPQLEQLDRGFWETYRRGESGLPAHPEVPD
Sequence of Serine/threonine-protein kinase Chk2 (O96017 whole entry): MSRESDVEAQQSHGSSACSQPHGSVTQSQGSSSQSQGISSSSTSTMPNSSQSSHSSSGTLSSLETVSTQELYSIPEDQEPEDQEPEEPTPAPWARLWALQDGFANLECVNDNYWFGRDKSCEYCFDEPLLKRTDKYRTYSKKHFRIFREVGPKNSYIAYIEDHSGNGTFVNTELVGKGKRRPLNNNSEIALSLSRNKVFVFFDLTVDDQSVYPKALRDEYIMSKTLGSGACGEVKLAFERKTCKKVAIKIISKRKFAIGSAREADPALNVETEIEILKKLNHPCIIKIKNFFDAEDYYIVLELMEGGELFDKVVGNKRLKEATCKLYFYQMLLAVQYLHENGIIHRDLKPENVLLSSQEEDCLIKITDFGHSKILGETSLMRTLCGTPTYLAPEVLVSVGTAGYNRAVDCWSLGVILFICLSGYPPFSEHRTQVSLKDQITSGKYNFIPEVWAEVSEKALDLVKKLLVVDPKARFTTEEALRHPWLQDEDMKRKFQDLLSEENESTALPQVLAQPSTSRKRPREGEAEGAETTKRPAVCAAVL
Sequence of Calcium/calmodulin-dependent protein kinase type II subunit alpha (Q9UQM7 whole entry): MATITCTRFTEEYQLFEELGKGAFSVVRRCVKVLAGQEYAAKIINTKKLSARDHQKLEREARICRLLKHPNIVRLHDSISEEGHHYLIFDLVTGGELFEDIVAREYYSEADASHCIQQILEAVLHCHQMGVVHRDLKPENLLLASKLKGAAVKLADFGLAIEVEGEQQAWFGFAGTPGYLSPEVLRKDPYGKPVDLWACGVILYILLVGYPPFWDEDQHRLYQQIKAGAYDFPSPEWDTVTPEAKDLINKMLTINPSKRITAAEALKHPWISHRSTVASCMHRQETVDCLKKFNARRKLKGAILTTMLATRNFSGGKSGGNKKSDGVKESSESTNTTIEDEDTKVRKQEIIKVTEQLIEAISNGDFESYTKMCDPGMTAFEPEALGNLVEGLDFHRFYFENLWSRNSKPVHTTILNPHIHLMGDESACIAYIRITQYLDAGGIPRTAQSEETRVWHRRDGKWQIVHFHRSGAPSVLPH
Sequence of Ribosomal protein S6 kinase alpha-3 (P51812 whole entry): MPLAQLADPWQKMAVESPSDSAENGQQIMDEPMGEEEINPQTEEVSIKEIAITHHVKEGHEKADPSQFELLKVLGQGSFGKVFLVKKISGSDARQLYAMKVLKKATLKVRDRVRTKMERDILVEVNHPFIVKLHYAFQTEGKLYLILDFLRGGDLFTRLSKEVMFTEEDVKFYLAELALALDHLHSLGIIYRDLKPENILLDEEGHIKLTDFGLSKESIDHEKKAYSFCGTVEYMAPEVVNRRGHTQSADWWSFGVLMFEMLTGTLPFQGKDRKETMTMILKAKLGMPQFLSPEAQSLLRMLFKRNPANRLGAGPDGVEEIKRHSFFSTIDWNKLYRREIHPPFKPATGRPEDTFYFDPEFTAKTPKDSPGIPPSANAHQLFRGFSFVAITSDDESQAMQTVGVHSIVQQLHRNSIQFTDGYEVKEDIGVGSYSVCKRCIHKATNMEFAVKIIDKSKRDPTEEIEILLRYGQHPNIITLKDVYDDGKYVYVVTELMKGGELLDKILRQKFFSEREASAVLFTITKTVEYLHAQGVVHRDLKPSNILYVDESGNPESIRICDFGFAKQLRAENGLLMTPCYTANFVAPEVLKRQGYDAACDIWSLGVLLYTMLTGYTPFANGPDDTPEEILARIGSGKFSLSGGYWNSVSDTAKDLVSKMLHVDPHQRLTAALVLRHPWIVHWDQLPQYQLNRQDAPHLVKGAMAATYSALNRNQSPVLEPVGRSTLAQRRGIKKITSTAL
Sequence of Activin receptor type-1 (Q04771 whole entry): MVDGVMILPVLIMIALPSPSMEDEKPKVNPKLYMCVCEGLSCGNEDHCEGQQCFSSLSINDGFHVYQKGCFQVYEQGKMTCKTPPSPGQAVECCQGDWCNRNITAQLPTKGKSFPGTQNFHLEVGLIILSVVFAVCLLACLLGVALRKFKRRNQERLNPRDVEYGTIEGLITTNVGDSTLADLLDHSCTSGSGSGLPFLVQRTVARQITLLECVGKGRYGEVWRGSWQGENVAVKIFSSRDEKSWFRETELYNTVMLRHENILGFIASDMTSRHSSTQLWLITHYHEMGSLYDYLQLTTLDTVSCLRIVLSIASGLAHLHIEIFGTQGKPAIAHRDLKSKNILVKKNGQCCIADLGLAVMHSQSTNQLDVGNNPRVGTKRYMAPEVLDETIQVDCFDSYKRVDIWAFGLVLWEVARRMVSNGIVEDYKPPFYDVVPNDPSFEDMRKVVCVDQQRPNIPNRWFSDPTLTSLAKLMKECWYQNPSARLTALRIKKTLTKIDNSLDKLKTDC
Sequence of Nonstructural protein 1 (Q194T2 whole entry): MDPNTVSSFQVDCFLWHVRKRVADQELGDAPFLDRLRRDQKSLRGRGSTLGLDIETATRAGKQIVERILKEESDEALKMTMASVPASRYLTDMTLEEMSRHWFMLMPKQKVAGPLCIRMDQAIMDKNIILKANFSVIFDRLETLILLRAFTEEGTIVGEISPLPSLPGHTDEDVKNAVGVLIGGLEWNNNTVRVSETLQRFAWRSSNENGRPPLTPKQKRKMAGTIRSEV
Sequence of 14-3-3 protein gamma (P61981 whole entry): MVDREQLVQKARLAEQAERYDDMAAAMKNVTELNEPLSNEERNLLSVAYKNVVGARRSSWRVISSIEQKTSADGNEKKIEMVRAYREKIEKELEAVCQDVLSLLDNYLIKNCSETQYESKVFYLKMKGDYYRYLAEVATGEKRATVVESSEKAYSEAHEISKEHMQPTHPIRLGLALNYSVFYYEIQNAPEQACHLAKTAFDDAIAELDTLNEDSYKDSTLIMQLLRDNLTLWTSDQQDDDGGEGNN

COC(=O)CCS(=O)(=O)c1nc(-c2ccccc2)cc(C(F)(F)F)n1
IC50 [1]: 3.45 µM (not active)

O=C(O)c1ccc(NC2=C(Cl)C(=O)c3ccccc3C2=O)cc1
IC50 [2]: 14.5 µM (active)

O=C(O)c1ccc2c3c(ncnc13)-c1ccccc1C2=O
IC50 (14-3-3 protein gamma): > 50 µM (not active) | EC50 [3]: 2.48 µM (active)

Cc1ccc2nccc(NC(=O)Nc3cccc(C(F)(F)F)n3)c2c1
Ki (Aurora kinase B): 0.251 µM (active) | Ki [4]: > 2.51 µM (inactive) | Ki [5]: 0.398 µM (active) | Ki [6]: > 7.94 µM (inactive) | Ki [7]: > 2 µM (inactive) | Ki [8]: > 3.16 µM (inactive) | Ki [9]: > 5.01 µM (inactive) | Ki (Activin receptor type-1): 0.316 µM (active) | Ki [10]: > 1.58 µM (inactive)

Cc1c(/N=C2\C=CC(=O)c3ccccc32)c(=O)n(-c2ccccc2)n1C
IC50 [11]: 46.4 µM (active) | IC50 (Beta-galactosidase [12]): > 66.6 µM (inactive) | IC50 (Nonstructural protein 1): 28.7 µM (active) | EC50 (Beta-galactosidase [13]): > 31.5 µM (inactive)

COc1cc2c(cc1F)C(c1ccccc1Cl)=Nc1c(n[nH]c1C)N2 [RG-1530]
Ki (LIM domain kinase 1): 0.501 µM (active) | Ki [14]: > 6.31 µM (inactive) | Ki [15]: > 2.51 µM (inactive)
